In patent publication US5130307A, “Aminoesters of rapamycin” (American Home Products Corporation, priority 1991, dated 1992):
≈ marks a conversion by molar mass, not a printed value.

Columns and labels:
[1] = tested on: pinch skin graft from male DBA/2 donors transplanted to male BALB/c recipients; test: survival time of pinch skin graft; assay type: in vivo; settings: for Skin Graft (days + SD), mean graft survival time: intraperitoneally
Protocol: (§1) Immunosuppressive activity was evaluated in an in vitro standard pharmacological test procedure to measure lymphocyte proliferation (LAF) and in two in vivo standard pharmacological test procedures. The first in vivo procedure was a popliteal lymph node (PLN) test procedure which measured the effect of compounds of this invention on a mixed lymphocyte reaction and the second in vivo procedure evaluated the survival time of a pinch skin graft.
The second in vivo test procedure is designed to determine the survival time of pinch skin graft from male DBA/2 donors transplanted to male BALB/c recipients. The method is adapted from Billingham R.E. and Medawar P.B., J. Exp. Biol. 28:385-402, (1951). Briefly, a pinch skin graft from the donor is grafted on the dorsum of the recipient as a homograft, and an autograft is used as control in the same region. […] Untreated recipients serve as rejection control. The graft is monitored daily and observations are recorded until the graft becomes dry and forms a blackened scab. This is considered as the rejection day. The mean graft survival time (number of days ±S.D.) of the drug treatment group is compared with the control group.

[2] = tested on: Candida albicans 3669; test: antifungal plate test, MIC; assay type: cell-based
Protocol: (§2) The following represents the typical procedure used. Compound to be tested was placed on sterile dried 1/4" plate disks, and allowed to dry. Agar plates were seeded with fungi and allowed to solidify. The impregnated disks were placed on the seeded Agar surface and incubated for the time required for the particular culture. Results are expressed in MIC (μg/ml) to inhibit growth.

[3] = tested on: Candida albicans ATCC 10231; test: antifungal plate test, MIC; assay type: cell-based; settings: ATCC10231
Protocol: as §2

[4] = tested on: Candida albicans ATCC 38247; test: antifungal plate test, MIC; assay type: cell-based; settings: ATCC38247
Protocol: as §2

[5] = tested on: Candida albicans ATCC 38246; test: antifungal plate test, MIC; assay type: cell-based; settings: ATCC38246
Protocol: as §2

[6] = tested on: Candida albicans ATCC 38248; test: antifungal plate test, MIC; assay type: cell-based; settings: ATCC38248
Protocol: as §2

[7] = tested on: popliteal lymph node; test: popliteal lymph node (PLN) test procedure, in vivo mixed lymphocyte reaction; design: species or system C3H mice (BALB/c donors)
Protocol: as §1
A mixed lymphocyte reaction (MLR) occurs when lymphoid cells from genetically distinct animals are combined in tissue culture. Each stimulates the other to undergo blast transformation which results in increased DNA synthesis that can be quantified by the incorporation of tritiated thymidine. Since stimulating a MLR is a function of disparity at Major Histocompatibility antigens, an in vivo popliteal lymph node (PLN) test procedure closely correlates to host vs. graft disease. Briefly, irradiated spleen cells from BALB/c donors are injected into the right hind foot pad of recipient C3H mice. The drug is given daily, p.o. from Day 0 to Day 4. On Day 3 and Day 4, tritiated thymidine is given i.p., b.i.d. On Day 5, the hind popliteal lymph nodes are removed and dissolved, and radioactivity counted. […] Percent suppression is calculated using the non-drug treated animals as allogenic control. […]

[8] = tested on: transplant rejection; settings: cited from earlier work
[9] = tested on: IgE-like antibodies; settings: cited from earlier work
[10] = alone or in combination with picibanil; cited from earlier work
[11] = tested on: experimental allergic encephalomyelitis; settings: in vivo; cited from earlier work
[12] = tested on: Candida albicans; settings: in vitro and in vivo; cited from earlier work

Compound	MIC [2]	MIC [3]	MIC [4]	MIC [5]	MIC [6]	Skin Graft (days + SD), mean graft survival time [1]	effect on T cell proliferation in PLN (in words) ([7]; negative ratio)	survival time of the skin graft (in words) ([1]; untreated grafts typically rejected within 6-7 days)	inhibition of transplant rejection / immunosuppressive effect (in words) [8]	PLN (ratio) ([7]; p.o. daily Day 0 to Day 4, ratio, rapamycin 1.0)	inhibition of the formation of IgE-like antibodies (in words) [9]	antitumor activity (in words) [10]	effectiveness in experimental allergic encephalomyelitis model (in words) [11]	antifungal activity (in words) [12]
CO[C@H]1C[C@@H]2CC[C@@H](C)[C@@](O)(O2)C(=O)C(=O)N2CCCC[C@H]2C(=O)O[C@H]([C@H](C)C[C@@H]2CC[C@@H](OC(=O)CC[C@H](NC(=O)OC(C)(C)C)C(=O)OC(C)(C)C)[C@H](OC)C2)CC(=O)[C@H](C)/C=C(\C)[C@@H](OC(=O)CC[C@H](NC(=O)OC(C)(C)C)C(=O)OC(C)(C)C)[C@@H](OC)C(=O)[C@H](C)C[C@H](C)/C=C/C=C/C=C/1C [Example 11, Rapamycin-31,42-diester with 5-(1,1-dimethylethoxy)-4-[[(1,1-dimethylethoxy)-carbonyl]-amino]-5-oxopentanoic acid]	> 0.4 µg/mL	> 0.4 µg/mL	> 0.4 µg/mL	> 0.4 µg/mL	> 0.4 µg/mL	10.5 ± 1.3 days								
CO[C@H]1C[C@@H]2CC[C@@H](C)[C@@](O)(O2)C(=O)C(=O)N2CCCC[C@H]2C(=O)O[C@H]([C@H](C)C[C@@H]2CC[C@@H](OC(=O)[C@H](CCCCNC(=O)OC(C)(C)C)NC(=O)OC(C)(C)C)[C@H](OC)C2)CC(=O)[C@H](C)/C=C(\C)[C@@H](OC(=O)[C@H](CCCCNC(=O)OC(C)(C)C)NC(=O)OC(C)(C)C)[C@@H](OC)C(=O)[C@H](C)C[C@H](C)/C=C/C=C/C=C/1C [Example 13, Rapamycin-31,42-diester with N^α, N^ε bis [(1,1-dimethylethoxy)carbonyl]-L-lysine]	> 0.4 µg/mL	> 0.4 µg/mL	> 0.4 µg/mL	> 0.4 µg/mL	> 0.4 µg/mL	7.0 ± 0.6 days								
C=CC[C@@H]1/C=C(\C)C[C@H](C)C[C@H](OC)[C@H]2O[C@@](O)(C(=O)C(=O)N3CCCC[C@H]3C(=O)O[C@H](/C(C)=C/[C@@H]3CC[C@@H](O)[C@H](OC)C3)[C@H](C)[C@@H](O)CC1=O)[C@H](C)C[C@@H]2OC [FK-506]									effective as immunosuppressive agents					
CO[C@H]1C[C@@H]2CC[C@@H](C)[C@@](O)(O2)C(=O)C(=O)N2CCCC[C@H]2C(=O)O[C@H]([C@H](C)C[C@@H]2CC[C@@H](O)[C@H](OC)C2)CC(=O)[C@H](C)/C=C(\C)[C@@H](O)[C@@H](OC)C(=O)[C@H](C)C[C@H](C)/C=C/C=C/C=C/1C [Rapamycin]						12.0 ± 1.7 days			effective in inhibiting transplant rejection	1.0	effectively inhibited the formation of IgE-like antibodies	has been shown to have antitumor activity	effective in the experimental allergic encephalomyelitis model	antifungal activity, particularly against Candida albicans, both in vitro and in vivo

More lines, main results first:

MIC [2]	MIC [3]	MIC [4]	MIC [5]	MIC [6]	Compound	Skin Graft (days + SD), mean graft survival time [1]	effect on T cell proliferation in PLN (in words) ([7]; negative ratio)	survival time of the skin graft (in words) ([1]; untreated grafts typically rejected within 6-7 days)	inhibition of transplant rejection / immunosuppressive effect (in words) [8]	PLN (ratio) ([7]; p.o. daily Day 0 to Day 4, ratio, rapamycin 1.0)	inhibition of the formation of IgE-like antibodies (in words) [9]	antitumor activity (in words) [10]	effectiveness in experimental allergic encephalomyelitis model (in words) [11]	antifungal activity (in words) [12]
> 0.4 µg/mL	> 0.4 µg/mL	> 0.4 µg/mL	> 0.4 µg/mL	> 0.4 µg/mL	CO[C@H]1C[C@@H]2CC[C@@H](C)[C@@](O)(O2)C(=O)C(=O)N2CCCC[C@H]2C(=O)O[C@H]([C@H](C)C[C@@H]2CC[C@@H](OC(=O)[C@H](CCC(=O)OC(C)(C)C)NC(=O)OC(C)(C)C)[C@H](OC)C2)CC(=O)[C@H](C)/C=C(\C)[C@@H](OC(=O)[C@H](CCC(=O)OC(C)(C)C)NC(=O)OC(C)(C)C)[C@@H](OC)C(=O)[C@H](C)C[C@H](C)/C=C/C=C/C=C/1C [Example 5, Rapamycin-31,42-diester with 5-(1,1-dimethylethoxy)-2-[[(1,1-dimethylethoxy)carbonyl]amino]-5-oxopentanoic acid]	8.8 ± 0.9 days								
> 0.4 µg/mL	0.1 µg/mL (≈ 0.0834 µM)	0.2 µg/mL (≈ 0.167 µM)	> 0.4 µg/mL	0.4 µg/mL (≈ 0.333 µM)	CO[C@H]1C[C@@H]2CC[C@@H](C)[C@@](O)(O2)C(=O)C(=O)N2CCCC[C@H]2C(=O)O[C@H]([C@H](C)C[C@@H]2CC[C@@H](OC(=O)[C@H](CCC(=O)OC(C)(C)C)NC(=O)OC(C)(C)C)[C@H](OC)C2)CC(=O)[C@H](C)/C=C(\C)[C@@H](O)[C@@H](OC)C(=O)[C@H](C)C[C@H](C)/C=C/C=C/C=C/1C [Example 6, Rapamycin-42-ester with 5-(1,1-dimethylethoxy)-2-[[(1,1-dimethylethoxy)carbonyl]amino]-5-oxopentanoic acid]	11.5 ± 3.5 days								
> 0.4 µg/mL	0.4 µg/mL (≈ 0.328 µM)	0.4 µg/mL (≈ 0.328 µM)	> 0.4 µg/mL	> 0.4 µg/mL	CO[C@H]1C[C@@H]2CC[C@@H](C)[C@@](O)(O2)C(=O)C(=O)N2CCCC[C@H]2C(=O)O[C@H]([C@H](C)C[C@@H]2CC[C@@H](OC(=O)C[C@H](NC(=O)OC(C)(C)C)C(=O)OCc3ccccc3)[C@H](OC)C2)CC(=O)[C@H](C)/C=C(\C)[C@@H](O)[C@@H](OC)C(=O)[C@H](C)C[C@H](C)/C=C/C=C/C=C/1C [Example 9, Rapamycin-42-ester with 3-[[(1,1-dimethylethoxy)carbonyl]amino]-4-oxo-4-(phenylmethoxy) butanoic acid]	10.3 ± 0.8 days								
0.4 µg/mL (≈ 0.333 µM)	0.2 µg/mL (≈ 0.167 µM)	0.2 µg/mL (≈ 0.167 µM)	> 0.4 µg/mL	0.4 µg/mL (≈ 0.333 µM)	CO[C@H]1C[C@@H]2CC[C@@H](C)[C@@](O)(O2)C(=O)C(=O)N2CCCC[C@H]2C(=O)O[C@H]([C@H](C)C[C@@H]2CC[C@@H](OC(=O)CC[C@H](NC(=O)OC(C)(C)C)C(=O)OC(C)(C)C)[C@H](OC)C2)CC(=O)[C@H](C)/C=C(\C)[C@@H](O)[C@@H](OC)C(=O)[C@H](C)C[C@H](C)/C=C/C=C/C=C/1C [Example 10, Rapamycin-42-ester with 5-(1,1-dimethyloxy)-4-[[(1,1-dimethylethoxy)carbonyl]amino]-5-oxopentanoicacid]	12.7 ± 1.2 days								
0.4 µg/mL (≈ 0.322 µM)	0.2 µg/mL (≈ 0.161 µM)	0.1 µg/mL (≈ 0.0805 µM)	> 0.4 µg/mL	0.2 µg/mL (≈ 0.161 µM)	CO[C@H]1C[C@@H]2CC[C@@H](C)[C@@](O)(O2)C(=O)C(=O)N2CCCC[C@H]2C(=O)O[C@H]([C@H](C)C[C@@H]2CC[C@@H](OC(=O)[C@H](CCCCNC(=O)OC(C)(C)C)NC(=O)OC(C)(C)C)[C@H](OC)C2)CC(=O)[C@H](C)/C=C(\C)[C@@H](O)[C@@H](OC)C(=O)[C@H](C)C[C@H](C)/C=C/C=C/C=C/1C [Example 12, Rapamycin-42-ester with N^α, N^ε -bis[(1,1-dimethylethoxy)carbonyl]-L-lysine]	12.0 ± 2.0 days	may cause T cell proliferation in the PLN test procedure	increased survival time observed in the skin graft test procedure						
